Assay results taken from ChEMBL document CHEMBL3886147 (2015).
Several values for one entry are separate records, joined by “and”; a condition that tells them apart may be missing. Equal entries are not always repeated.

What was measured:
[1] = biological target: Beta-lactamase (Escherichia coli K-12, UniProt P00811); test: (§1) Assays are performed with beta -lactamases expressed in the pET system (Novagen, San Diego, Calif.) without signal peptides. They contain an N-terminal hexa-Histidine tag that is used for purification on Ni-NTA (Qiagen, Hilden, Germany). The compounds are prepared as 50 mM stocks in DMSO and diluted into buffer P1 (50 mM phosphate, pH 7) to a final concentration of 10% DMSO. All further dilutions are done in P2 (P1 with 10% DMSO). Enzyme and compound dilutions are pre-incubated for 10 min at 37 C. and the reaction is started with the addition of pre-warmed (37 C.) nitrocefin at a final concentration of […]. The change in absorption at 490 nm is followed at 37 C. for 10 min with 30 s intervals.
[2] = biological target: Beta-lactamase TEM (Bacteria, UniProt P62593); test: as §1
Beta-lactamase TEM, sequence (P62593 whole entry): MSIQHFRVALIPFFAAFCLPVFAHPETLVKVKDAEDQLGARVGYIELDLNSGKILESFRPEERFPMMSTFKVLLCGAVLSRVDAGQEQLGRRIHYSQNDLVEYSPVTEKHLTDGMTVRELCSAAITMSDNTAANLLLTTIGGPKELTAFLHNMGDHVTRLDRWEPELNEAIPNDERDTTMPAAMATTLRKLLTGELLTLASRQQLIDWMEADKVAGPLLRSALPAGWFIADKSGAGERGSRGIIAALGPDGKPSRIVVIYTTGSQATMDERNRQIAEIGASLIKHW

Beta-lactamase, sequence (P00811 whole entry): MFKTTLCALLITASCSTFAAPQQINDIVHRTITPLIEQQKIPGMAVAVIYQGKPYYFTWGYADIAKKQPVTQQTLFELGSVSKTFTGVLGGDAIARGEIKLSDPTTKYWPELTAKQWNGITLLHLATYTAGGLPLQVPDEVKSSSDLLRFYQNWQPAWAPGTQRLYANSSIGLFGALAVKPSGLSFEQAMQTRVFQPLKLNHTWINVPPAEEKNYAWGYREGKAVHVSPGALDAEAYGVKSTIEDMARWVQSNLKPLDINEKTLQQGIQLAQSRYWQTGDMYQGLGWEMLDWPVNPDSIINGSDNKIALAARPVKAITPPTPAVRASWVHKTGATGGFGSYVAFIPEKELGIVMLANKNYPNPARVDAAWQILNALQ

SMILES | IC50 [1] | IC50 [2] [nM]
[N-]=[N+]=NCC1C/C(=C2\O[C@@H]3CC(=O)N3C2C(=O)OCc2ccccc2)C(=O)O1 (stereo not given in full) | 305 nM | –
COC(=O)C1/C(=C2/CC(CI)OC2=O)O[C@@H]2CC(=O)N12 (stereo not given in full) | 126 nM | 3.5
CC1CC(=C2O[C@@H]3CC(=O)N3C2C(=O)O)C(=O)O1 (single isomer, unassigned) | 6080 nM | –
CC1C/C(=C2\O[C@@H]3CC(=O)N3C2C(=O)OCc2ccccc2)C(=O)O1 (single isomer, unassigned) | 1070 nM and 301 nM | –
